# Experimental data taken from patent publication US11465965B2, “Double-headed protease inhibitor” (UBE INDUSTRIES, LTD., priority 2017, dated 2022).
# Counter-ions that a name gives are not always drawn. Like-named read-outs stand apart in the source and are kept apart here.
# What was measured:
# [1] = Rat pharmacokinetic (PK) test (plasma concentration after oral administration); conditions: male, SD
# Method: Each test compound was suspended in a 0.5 W/V % methylcellulose 400 solution to prepare a suspension, and the resulting suspension was orally administered to a male SD rat of 7 to 8-week old (weight: 180 to 250 g). After 0.25, 0.5, 1, 2, 4, 8, and 24 hour(s) of the administration of each test compound, blood (EDTA-added blood) was collected from jugular vein under isoflurane inhalation anesthesia. […] To the resulting blood plasma was added acetonitrile, a mixed solvent of acetonitrile and water (1:1 (V/V)), or a mixed solvent of acetonitrile and 0.1 M hydrochloric acid (1:1 (V/V)), then the resulting mixture was mixed at 750 rpm for 3 minutes in a shaker, and subjected to centrifugal separation at 3700 rpm for 2 minutes in a centrifuge to remove proteins. The resulting sample was subjected to LC (liquid chromatography)/MS (mass spectrometry) measurement under the following measurement conditions.
# Each compound concentration in blood plasma at each time of blood collection was calculated according to the internal standard method, and, area under the plasma concentration vs. time curve (AUCall (Area Under Curve)) was calculated according to the trapezoidal method.
# The LC and MS systems used in the present test are as follows.
# LC: LC20 or LC30 HPLC system manufactured by Shimadzu Corporation
# Column: Phenomenex Kinetex C18 (50×2.1 mm, 2.6 μm)
# Column temperature: 40° C.
# Mobile phase A: aqueous solution with 0.1% formic acid, Mobile phase B: 50% acetonitrile/methanol solution with 0.1% formic acid
# [2] = tested on: DIO mouse; test: Anti-obesity effect test using DIO mouse; assay type: in vivo; conditions: 336 h, DIO mice, vs vehicle group, read-out: Weight loss rate; for inhibition in vivo at 30 mg/kg: oral 30 mg/kg once daily for 2 weeks; for inhibition in vivo at 100 mg/kg: oral 100 mg/kg once daily for 2 weeks
# Method: (Test Example 4): Anti-Obesity Effect Test Using DIO Mouse
# Diet-induced obesity (DIO) mice (D-12492 diet, male, C57BL-DIO, 26 to 28-week old) were orally administered with a 0.5 W/V % methylcellulose suspension comprising each test compound (Compound administration group, 5 or 6 mice/group) or a 0.5 W/V % methylcellulose suspension (Compound non-administration group (Vehicle group), 6 mice/group) once daily for 2 weeks. Weight loss rate was calculated by the following equation. Weight loss rate (%) of each Compound administration group−(1−average weight at the last day of the test of each Compound administration group/average weight at the last day of the test of Vehicle group)×100
# [3] = molecular target: T1, Human recombinant trypsin (Homo sapiens, UniProt P07477); test: Human trypsin inhibition test; assay type: biochemical; conditions: 20 minutes after reaction start, read-out: Inhibition rate (trypsin); for inhibition at 0.01 µM: compound concentration 10 nM; for inhibition at 0.1 µM: compound concentration 100 nM; for inhibition at 0.001 µM: compound concentration 1 nM
# T1 construct: purchased Wako Pure Chemical Industries, Ltd. 206-17171
# Method: (Test Example 2): Human Trypsin Inhibition Test
# Human recombinant trypsin (manufactured by Wako Pure Chemical Industries, Ltd., code no.: 206-17171) was diluted with an assay buffer (0.1 M Tris-HCl (pH8.0), 0.15 M NaCl, 10 mM CaCl2, 0.05% Brij35) to prepare a 10 ng/mL enzyme solution. Then, Boc-Phe-Ser-Arg-MCA (manufactured by PEPTIDE INSTITUTE, INC., code no.: 3107-v) was diluted with the assay buffer to prepare a 40 μM substrate solution. Each test compound was dissolved into DMSO, then diluted with the assay buffer 100 times, and further appropriately diluted with an assay buffer comprising 1% DMSO to prepare each compound solution. 10 μL of the compound solution, 15 μL of the assay buffer, and 50 μL of the substrate solution were added to a 96 well black plate (manufactured by Thermo Fisher Scientific Inc., code no.: 9502867), mixed, and then 25 μL of the enzyme solution was added thereto, and mixed to start the reaction. Fluorescence intensities at excitation wavelength 355 nm and fluorescence wavelength of 460 nm were measured by using a fluorescence plate reader (Flex station 3) (Test compound addition group). Also, the same reaction as described above except for not adding each test compound was carried out (Test compound non-addition group). Additionally, the same reaction as described above except for not adding each test compound and the enzyme was carried out (Control group). Inhibition rate was calculated by the following equation using fluorescence intensity after 20 minutes of reaction start. Inhibition rate (%)=(1−(fluorescence intensity of Test compound addition group−fluorescence intensity of Control group)[…](fluorescence intensity of Test compound non-addition group−fluorescence intensity of Control group))×100
# [4] = molecular target: T2, Human recombinant enteropeptidase (Homo sapiens, UniProt P98073); test: Human enteropeptidase inhibition test; assay type: biochemical; conditions: read-out: Inhibition rate (enteropeptidase); for inhibition at 0.001 µM: compound concentration 1 nM
# T2 construct: purchased BIO Vision Inc. 7529-50
# Method: (Test Example 1): Human Enteropeptidase Inhibition Test
# Human recombinant enteropeptidase (manufactured by BIO Vision Inc., catalog no.: 7529-50) was diluted with an assay buffer (50 mM tricine (pH8.0), 0.01 W/V % Tween 20, 10 mM CaCl2) to prepare an […] enzyme solution. Then, 5FAM-Abu-Gly-Asp-Asp-Lys-Ile-Val-Gly-Gly-Lys (CPQ2)-Lys-Lys-NH2 (manufactured by CHINESE PEPTIDE COMPANY, purity: 94.5) was diluted with the assay buffer to prepare a 1.5 μM substrate solution. Each test compound was dissolved into DMSO, then diluted with the assay buffer 100 times, and further appropriately diluted with an assay buffer comprising 1% DMSO to prepare each compound solution. 10 μL of the compound solution, 15 μL of the assay buffer, and 50 μL of the substrate solution were added to a 96 well black plate (manufactured by Thermo Fisher Scientific Inc., code no.: 9502867), mixed, then 25 μL of the enzyme solution was added thereto, and mixed to start the reaction. Fluorescence intensities at excitation wavelength 485 nm and fluorescence wavelength 535 nm were measured by using a fluorescence plate reader (Flex station 3) (Test compound addition group). Also, the same reaction as described above except for not adding each test compound was carried out (Test compound non-addition group). Additionally, the same reaction as described above except for not adding each test compound and the enzyme was carried out (Control group). Inhibition rate was calculated by the following equation using fluorescence intensity after 20 minutes of reaction start. Inhibition rate (%)=(1−(fluorescence intensity of Test compound addition group−fluorescence intensity of Control group)÷(fluorescence intensity of Test compound non-addition group−fluorescence intensity of Control group))×100
# [5] = 20 minutes after reaction start
# [6] = compound concentration 10 nM, 20 minutes after reaction start
# [7] = compound concentration 100 nM, 20 minutes after reaction start
# T2 sequence (P98073 whole entry): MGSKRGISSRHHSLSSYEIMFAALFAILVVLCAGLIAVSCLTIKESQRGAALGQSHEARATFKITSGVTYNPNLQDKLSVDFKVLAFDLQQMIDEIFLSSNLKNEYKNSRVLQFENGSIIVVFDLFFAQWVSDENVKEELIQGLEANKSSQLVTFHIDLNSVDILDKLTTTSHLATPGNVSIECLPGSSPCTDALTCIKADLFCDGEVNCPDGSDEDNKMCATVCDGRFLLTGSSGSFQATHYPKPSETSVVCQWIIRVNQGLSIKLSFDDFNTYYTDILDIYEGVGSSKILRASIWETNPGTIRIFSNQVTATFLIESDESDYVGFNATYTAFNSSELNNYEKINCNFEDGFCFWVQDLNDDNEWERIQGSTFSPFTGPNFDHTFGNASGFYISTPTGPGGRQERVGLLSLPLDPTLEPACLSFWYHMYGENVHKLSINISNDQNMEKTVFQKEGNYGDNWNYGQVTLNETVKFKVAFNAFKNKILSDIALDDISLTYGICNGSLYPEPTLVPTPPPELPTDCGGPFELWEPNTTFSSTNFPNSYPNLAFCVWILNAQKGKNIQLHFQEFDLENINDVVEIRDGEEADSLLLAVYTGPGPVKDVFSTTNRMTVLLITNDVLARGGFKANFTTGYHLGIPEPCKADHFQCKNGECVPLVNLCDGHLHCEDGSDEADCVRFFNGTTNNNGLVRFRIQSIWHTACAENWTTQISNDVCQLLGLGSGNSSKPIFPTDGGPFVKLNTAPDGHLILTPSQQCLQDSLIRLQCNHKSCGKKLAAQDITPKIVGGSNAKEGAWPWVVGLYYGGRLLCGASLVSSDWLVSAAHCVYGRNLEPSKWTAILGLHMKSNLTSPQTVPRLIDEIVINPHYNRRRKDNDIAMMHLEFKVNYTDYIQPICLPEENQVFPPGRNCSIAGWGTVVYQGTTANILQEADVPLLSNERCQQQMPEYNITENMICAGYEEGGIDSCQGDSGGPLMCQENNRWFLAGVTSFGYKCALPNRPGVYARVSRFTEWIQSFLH
SMILES,AUC ([1]; 10 mg/kg) [µg·h/mL],inhibition at 0.01 µM [3] [%],inhibition at 0.1 µM [3] [%],"inhibition at 0.001 µM [4, 5] [%]","inhibition at 0.01 µM [4, 6] [%]","inhibition at 0.1 µM [4, 7] [%]",inhibition at 0.001 µM [3] [%],inhibition in vivo at 30 mg/kg [2] [%],AUC ([1]; 9 mg/kg) [µg·h/mL],inhibition in vivo at 100 mg/kg [2] [%],inhibition at 0.01 µM [4] [%],inhibition at 0.1 µM [4] [%],inhibition in vivo at 90 mg/kg ([2]; oral 90 mg/kg once daily for 2 weeks) [%]
"Cl.N=C(N)Nc1ccc(C(=O)Oc2ccc(CNS(=O)(=O)N(CCOCCOCCOCCOCCOCCN([C@@H](CC(=O)O)C(=O)O)S(=O)(=O)NCc3ccc(OC(=O)c4ccc(NC(=N)N)cc4)cc3)[C@@H](CC(=O)O)C(=O)O)cc2)cc1 [5-(c), (2S,22S)-3,21-bis(N-(4-((4-guanidinobenzoyl)oxy)benzyl)sulfamoyl)-6,9,12,15,18-pentaoxa-3,21-diazatricosane-1,2,22,23-tetracarboxylic acid hydrochloride]",≤ 0.1,,,,,,,,,≥ 4,,,
"N=C(N)Nc1ccc(C(=O)Oc2ccc(COC(=O)N(Cc3cccc(C(=O)O)c3)[C@@H](CC(=O)O)C(=O)NCCOCCOCCOCCOCCNC(=O)[C@H](CC(=O)O)N(Cc3cccc(C(=O)O)c3)C(=O)OCc3ccc(OC(=O)c4ccc(NC(=N)N)cc4)cc3)cc2)cc1 [16-(b), (3S,22S)-3,22-bis((3-carboxybenzyl) (((4-(14-guanidinobenzoyl)oxy)benzyl)oxy)carbonyl)amino)-4,21-dioxo-8,11,14,17-tetraoxa-5,20-diazatetracosane-1,24-dioic acid trifluoroacetate]",,≥ 50,≥ 50,,,,,,≤ 0.1,,≥ 50,≥ 50,
"N=C(N)Nc1ccc(C(=O)Oc2ccc(CNS(=O)(=O)N(Cc3cccc(C(=O)NCCOCCOCCOCCOCCNC(=O)c4cccc(CN([C@@H](CC(=O)O)C(=O)O)S(=O)(=O)NCc5ccc(OC(=O)c6ccc(NC(=N)N)cc6)cc5)c4)c3)[C@@H](CC(=O)O)C(=O)O)cc2)cc1 [18-(b), (2S,2′S)-2,2′-((((5,8,11,14-tetraoxa-2,17-diazaoctadecane-1,18-dioyl)bis(3,1-phenylene))bis(methylene))bis(N-(4-((4-guanidinobenzoyl)oxy)benzyl)sulfamoyl)azanediyl))disuccinic acid trifluoroacetate]",,≥ 50,≥ 50,,,,≥ 50,,≤ 0.1,,≥ 50,≥ 50,≥ 4
"Cl.N=C(N)Nc1ccc(C(=O)Oc2ccc(CNS(=O)(=O)N(CCOCCOCCOCCOCCOCCOCCN([C@@H](CC(=O)O)C(=O)O)S(=O)(=O)NCc3ccc(OC(=O)c4ccc(NC(=N)N)cc4)cc3)[C@@H](CC(=O)O)C(=O)O)cc2)cc1 [6-(c), (2S,25S)-3,24-bis(N-(4-((4-guanidinobenzoyl)oxy)benzyl)sulfamoyl)-6,9,12,15,18,21-hexaoxa-3,24-diazahexacosane-1,2,25,26-tetracarboxylic acid hydrochloride]",≤ 0.1,,,,,,,,,≥ 4,,,

# The next lines start with results.
AUC ([1]; 10 mg/kg) [µg·h/mL],inhibition at 0.01 µM [3] [%],inhibition at 0.1 µM [3] [%],"inhibition at 0.001 µM [4, 5] [%]","inhibition at 0.01 µM [4, 6] [%]","inhibition at 0.1 µM [4, 7] [%]",inhibition at 0.001 µM [3] [%],SMILES,inhibition in vivo at 30 mg/kg [2] [%],AUC ([1]; 9 mg/kg) [µg·h/mL],inhibition in vivo at 100 mg/kg [2] [%],inhibition at 0.01 µM [4] [%],inhibition at 0.1 µM [4] [%],inhibition in vivo at 90 mg/kg ([2]; oral 90 mg/kg once daily for 2 weeks) [%]
≤ 0.1,,,,,,,N=C(N)Nc1ccc(C(=O)Oc2ccc(CNS(=O)(=O)N(CCOCCOCCN([C@@H](CC(=O)O)C(=O)O)S(=O)(=O)NCc3ccc(OC(=O)c4ccc(NC(=N)N)cc4)cc3)[C@@H](CC(=O)O)C(=O)O)cc2)cc1 [2-(c)],≥ 4,,,,,
,≥ 50,≥ 50,≥ 50,≥ 50,≥ 50,,"N=C(N)Nc1ccc(C(=O)Oc2ccc(COC(=O)N(CC(=O)O)[C@@H](CC(=O)O)C(=O)N[C@@H](CC(=O)O)C(=O)NCCOCCOCCOCCOCCNC(=O)[C@H](CC(=O)O)NC(=O)[C@H](CC(=O)O)N(CC(=O)O)C(=O)OCc3ccc(OC(=O)c4ccc(NC(=N)N)cc4)cc3)cc2)cc1 [15-(b), (4S,7S,26S,29)-4,7,26,29-tetrakis(carboxymethyl)-3,30-bis((4-((4-guanidinobenzoyl)oxy)benzyl)oxy)carbonyl)-5,8,25,28-tetraoxo-12,15,18,21-tetraoxa-3,6,9,24,27,30-hexaazadotriacontane-1,32-dioic acid trifluoroacetate]",,≤ 0.1,,,,
,≥ 50,≥ 50,,≥ 50,≥ 50,,"N=C(N)Nc1ccc(C(=O)Oc2ccc(COC(=O)N(CCCCCCCCCCCCN(C(=O)OCc3ccc(OC(=O)c4ccc(NC(=N)N)cc4)cc3)C(CC(=O)O)C(=O)O)C(CC(=O)O)C(=O)O)cc2)cc1 (stereo not shown) [11-(b), 2,2′-(1,20-bis(4-((4-guanidinobenzoyl)oxy)phenyl 3,18-dioxo-2,19-dioxa-4,17-diazaicosane-4,17-diyl)disuccinic acid trifluoroacetate]",,≤ 0.1,,,,
≤ 0.1,≥ 50,≥ 50,≥ 50,≥ 50,≥ 50,≥ 50,"N=C(N)Nc1ccc2c(c1)CCCOc1c(cccc1C(=O)N(CCOCCOCCN(C(=O)c1cccc3c1OCCCc1cc(NC(=N)N)ccc1C(=O)O3)C(CC(=O)O)C(=O)O)C(CC(=O)O)C(=O)O)OC2=O (stereo not shown) [19-(b), 3,12-bis(10-guanidino-13-oxo-6,7,8,13-tetrahydrodibenzo[b,f][1,4]dioxecin-4-carbonyl)-6,9-dioxa-3,12-diazatetradecane-1,2,13,14-tetracarboxylic acid trifluoroacetate]",≥ 4,,,,,
≤ 0.1,≥ 50,≥ 50,≥ 50,≥ 50,≥ 50,≥ 50,N=C(N)Nc1ccc(C(=O)Oc2cccc(C(=O)N(CCOCCN(C(=O)c3cccc(OC(=O)c4ccc(NC(=N)N)cc4)c3)[C@@H](CC(=O)O)C(=O)O)[C@@H](CC(=O)O)C(=O)O)c2)cc1 [30-(a)],,,,,,
≤ 0.1,≥ 50,≥ 50,≥ 50,≥ 50,≥ 50,≥ 50,"N=C(N)Nc1ccc(C(=O)Oc2ccc(CNS(=O)(=O)N(CCCCN([C@@H](CC(=O)O)C(=O)O)S(=O)(=O)NCc3ccc(OC(=O)c4ccc(NC(=N)N)cc4)cc3)[C@@H](CC(=O)O)C(=O)O)cc2)cc1 [8-(b), (2S,2′S)-2,2′-(butane-1,4-diylbis((N-(4-((4-guanidinobenzoyl)oxy)benzyl)sulfamoyl)azanediyl))disuccinic acid trifluoroacetate]",,,≥ 4,,,
